Data published in ChEMBL document CHEMBL3751703, “Structure-based design of a bisphosphonate 5(3)-deoxyribonucleotidase inhibitor” (Medchemcomm, 2015).

Key:
[1] = species: Homo sapiens; test: Selectivity ratio of Ki for N-terminal hexaHis-tagged human cytosolic 5'(3')-deoxynucleotidase to Ki for N-terminal hexaHis-tagged human mitochondrial 5'(3')-deoxynucleotidase
[2] = target: 5'(3')-deoxyribonucleotidase, cytosolic type (Homo sapiens, UniProt Q8TCD5); test: Inhibition of N-terminal hexaHis-tagged human cytosolic 5'(3')-deoxynucleotidase using dUMP as substrate
[3] = target: 5'(3')-deoxyribonucleotidase, mitochondrial (Homo sapiens, UniProt Q9NPB1); test: Inhibition of N-terminal hexaHis-tagged human mitochondrial 5'(3')-deoxynucleotidase using dUMP as substrate
5'(3')-deoxyribonucleotidase, mitochondrial, sequence (Q9NPB1 whole entry): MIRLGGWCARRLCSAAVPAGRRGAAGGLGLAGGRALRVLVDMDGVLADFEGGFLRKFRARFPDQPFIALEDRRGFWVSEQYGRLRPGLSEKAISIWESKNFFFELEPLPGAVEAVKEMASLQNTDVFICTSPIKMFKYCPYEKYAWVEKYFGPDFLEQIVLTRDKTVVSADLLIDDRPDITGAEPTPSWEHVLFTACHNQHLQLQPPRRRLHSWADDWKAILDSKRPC

5'(3')-deoxyribonucleotidase, cytosolic type, sequence (Q8TCD5 whole entry): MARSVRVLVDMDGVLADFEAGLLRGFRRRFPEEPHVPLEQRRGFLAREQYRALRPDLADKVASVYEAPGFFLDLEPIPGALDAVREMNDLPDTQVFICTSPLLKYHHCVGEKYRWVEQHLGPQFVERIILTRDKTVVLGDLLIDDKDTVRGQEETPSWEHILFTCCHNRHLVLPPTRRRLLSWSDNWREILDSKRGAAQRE

- Ratio Ki [1]: 20
- Ki [2]: 21.7 µM
- Ki [3]: 0.128 µM
SMILES: O=c1[nH]c(=O)n([C@H]2C[C@H]3O[C@](c4ccccc4)(P(=O)(O)O)OC[C@H]3O2)cc1/C=C/P(=O)(O)O
